Test results published in PMC3665241, “Scaffold-Focused Virtual Screening: Prospective Application to the Discovery of TTK Inhibitors” (Journal of Chemical Information and Modeling, 2013).

Columns and labels:
[1] = target: T1, GST-tagged recombinant human full-length TTK protein kinase (Homo sapiens, UniProt P33981); assay: TTK mobility shift microfluidics assay, IC50 determination (3 nM TTK); assay type: biochemical; conditions: for IC50: 3 nM TTK, 10 μM ATP, duplicate on the same plate; for LE (ligand efficiency): from TTK IC50
T1 construct: GST-tagged recombinant human full-length TTK protein kinase; purchased Invitrogen (Life Technologies Ltd., Paisley, U.K.)
T1 sequence (P33981 1-857): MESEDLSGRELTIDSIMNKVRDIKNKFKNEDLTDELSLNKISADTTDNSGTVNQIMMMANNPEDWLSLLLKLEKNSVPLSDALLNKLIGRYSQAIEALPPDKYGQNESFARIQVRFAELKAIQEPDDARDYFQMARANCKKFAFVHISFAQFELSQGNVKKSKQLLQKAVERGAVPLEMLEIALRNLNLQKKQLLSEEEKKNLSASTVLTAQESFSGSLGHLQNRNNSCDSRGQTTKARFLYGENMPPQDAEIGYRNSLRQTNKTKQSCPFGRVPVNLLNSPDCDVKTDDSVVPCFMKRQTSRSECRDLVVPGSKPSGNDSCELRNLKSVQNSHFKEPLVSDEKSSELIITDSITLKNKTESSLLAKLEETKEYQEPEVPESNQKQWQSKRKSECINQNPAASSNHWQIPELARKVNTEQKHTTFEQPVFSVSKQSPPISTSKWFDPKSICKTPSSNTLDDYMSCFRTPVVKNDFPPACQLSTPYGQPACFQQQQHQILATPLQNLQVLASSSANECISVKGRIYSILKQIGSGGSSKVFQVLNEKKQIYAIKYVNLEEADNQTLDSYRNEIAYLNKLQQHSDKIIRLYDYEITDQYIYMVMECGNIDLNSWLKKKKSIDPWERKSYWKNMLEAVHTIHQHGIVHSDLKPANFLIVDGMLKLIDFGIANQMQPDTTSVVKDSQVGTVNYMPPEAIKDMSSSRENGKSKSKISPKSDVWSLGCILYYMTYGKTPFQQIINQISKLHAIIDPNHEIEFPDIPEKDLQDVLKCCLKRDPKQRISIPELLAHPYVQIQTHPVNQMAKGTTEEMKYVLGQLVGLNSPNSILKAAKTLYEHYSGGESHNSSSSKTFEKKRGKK

[2] = target: T2, TTK kinase domain (residues 519–808) (Homo sapiens, UniProt P33981); assay: Soaking of apo TTK kinase domain crystals with inhibitor, X-ray crystallography; assay type: binding; conditions: crystals soaked with 10–50 mM compound for 24 h
T2 construct: TTK kinase domain (residues 519–808); inferred from Ni-NTA purification with imidazole elution; made in house; host or cells: E. coli BL21 AI
T2 sequence (P33981 519-808): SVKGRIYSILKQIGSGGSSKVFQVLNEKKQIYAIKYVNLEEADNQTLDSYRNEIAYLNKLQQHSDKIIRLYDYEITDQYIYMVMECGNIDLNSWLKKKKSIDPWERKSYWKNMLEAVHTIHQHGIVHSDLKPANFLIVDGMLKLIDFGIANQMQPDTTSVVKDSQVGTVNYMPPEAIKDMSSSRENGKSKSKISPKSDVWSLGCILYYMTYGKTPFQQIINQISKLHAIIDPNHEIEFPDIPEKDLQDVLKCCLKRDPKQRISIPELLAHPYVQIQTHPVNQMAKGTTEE
From the text: In recognition of the desirability of protein–ligand crystal structures to educate the efficient follow-up of fragment-like hit matter and our wish to determine the mode of binding of hits identified with the scaffold-focused virtual screen, we sought co-crystal structures of confirmed hits with TTK. To this end, apo crystals of TTK kinase domain were soaked in buffer solution containing the respective inhibitor (2–9). X-ray data were collected for all crystals, and the structures were solved using molecular replacement. We successfully obtained co-crystal structures of TTK with fragment-like hit compounds 3, 4, 5, and 7. […] A summary of crystallographic analysis is presented in Table 4, and the binding modes of compounds 3, 4, 5, and 7 are illustrated in Figure 7 with Fo–Fc electron density omit maps surrounding the ligand shown in green wire-mesh contoured at 3σ. In all four structures, the activation loop of TTK is disordered, possibly due to the presence of a PEG molecule bound to Lys553, a residue which would usually coordinate with Glu571 to help stabilize the activation loop (Lys553 is not shown in Figure 7 for clarity).
TTK was purified and crystallized as described previously.[26] Plasmids for expression of TTK were received from Stefan Knapp, Structural Genomics Consortium, Oxford, U.K. TTK kinase domain (residues 519–808) was expressed in E. coli BL21 AI competent cells (Invitrogen, Life Technologies Ltd., Paisley, U.K.). Cells were cultured in LB media containing kanamycin selection antibiotic and induced with 0.5 mM IPTG and 1g/L L-arabinose at an OD280 of 0.7. Cells were then incubated overnight at 18 °C with shaking at 225 rpm. Cells were harvested and resuspended in lysis buffer containing 50 mM HEPES pH 7.5, 500 mM NaCl, 10 mM imidazole, 5% (v/v) glycerol, lysozyme, and 1 Roche EDTA free complete protease inhibitor cocktail tablet (Roche, Basel, Switzerland) per 3 L of buffer. TTK was purified using Ni–NTA nickel affinity resin and washed in buffer containing 30 mM imidazole. TTK was then eluted from the resin with 250 mM imidazole. Eluate was concentrated using a Vivaspin concentrator with a 30 kDa molecular weight cutoff (GE Healthcare, Chalfont St. Giles, U.K.) and further purified on gel filtration column Superdex 200 16/60 (GE Healthcare, Chalfont St. Giles, U.K.) equilibrated in buffer containing 10 mM HEPES pH 7.5, 150 mM NaCl, 5 mM DTT, and 5 mM EDTA. The sample was concentrated to a final concentration of 8.9 mg/mL, snap frozen on dry ice, and stored at −80 °C until required.
Purified TTK was crystallized at 18 °C using the sitting drop vapor diffusion method with drops composed of 2 μL protein (8.9 mg/mL) and 2 μL reservoir solution placed over 200 μL reservoir solution of H2O/PEG300 (30–45% (v/v)) in 48 well plates. […]

[3] = target: T1, GST-tagged recombinant human full-length TTK protein kinase; assay: TTK mobility shift microfluidics assay, single-concentration percent inhibition screen; assay type: biochemical; conditions: 12.5 nM TTK, 10 μM ATP, mean of duplicate ± SD; for inhibition at 40 µM: compound at 40 μM, 1% DMSO; for inhibition at 400 µM: compound at 400 μM (fragment-like, MW < 300 Da)
Description: The TTK kinase activity was measured in a mobility shift microfluidics assay with the Caliper LabChip EZReader II (Caliper Life Sciences, Hopkinton, MA, U.S.A.). For the initial percent inhibition compound screen, all compounds were tested at 40 μM, and fragment-like compounds (MW < 300 Da) were also tested at 400 μM. A 2.14 μM stock of GST-tagged recombinant human full-length TTK protein kinase from Invitrogen (Invitrogen, Life Technologies Ltd., Paisley, U.K.) and custom synthesized peptide from Pepceuticals (Pepceuticals Ltd., Enderby, U.K.) with sequence 5-FAM-[…]-amide were used. […] For every 10 mL of stock buffer, one Roche EDTA free complete mini-protease inhibitor cocktail tablet (Roche, Basel, Switzerland) was added. TTK was used at a final concentration of 12.5 nM. The assay plate was sealed and incubated at room temperature for 60 min. The assay was stopped by addition of stop buffer which contained 100 mM HEPES (pH 7.3), 20 mM EDTA, and 0.05% (v/v) Brij-35. The assay plate was then analyzed using the EZReader II. Z′ for compounds at 40 μM was 0.48, and Z′ for compounds at 400 μM was 0.61.

Compound	IC50 ([1]; 1% DMSO) [µM]	LE (ligand efficiency) [1]	binding in ATP binding site of soaked TTK crystals (electron density) [2]	inhibition at 40 µM [3] [%]	inhibition at 400 µM [3] [%]	IC50 ([1]; 10% DMSO (asterisk)) [µM]
Nc1nnc2c([nH]c3ccccc32)c1-c1ccccc1 [Compound 2]	53	0.29	not bound	52 ± 1.41	56 ± 1.41	–
c1cc2cnc3sccc3c2cn1 [Compound 3, Thieno[2,3-c][2,6]naphthyridine]	–	0.45	–	70	105.5 ± 0.71	–
c1ccc2c(c1)[nH]c1cncnc12 [Compound 4, 5H-pyrimido[5,4-b]indole]	–	0.44	–	42.5 ± 0.71	63 ± 2.83	–
c1cc2cnc3ccsc3c2cn1 [Compound 5, thieno[3,2-c][2,6]naphthyridine]	–	0.44	–	46 ± 1.41	65 ± 2.83	–
c1ccc(-c2nc3cnccc3[nH]2)nc1 [Compound 6]	91.5	0.37	not bound	21.5 ± 2.12	66	–
c1cc2c(cn1)cnc1sccc12 [Compound 7, thieno[2,3-c][2,7]naphthyridine]	–	0.42	–	51 ± 1.41	94.5 ± 2.12	–
COc1ccc2c(c1)[nH]c1c(C)nccc12 [Compound 8, harmine]	160	0.32	not bound	19	65 ± 1.41	–
N#Cc1ccccc1NC(=O)Cn1ncc2c1-c1ccccc1OC2 [Compound 10]	–	–	–	53.5 ± 0.71	–	–
COc1ccc(Nc2ncnc3sc(-c4ccccc4)cc23)cc1OC [Compound 11]	2.1	0.30	–	64 ± 1.41	–	–
COc1ccc(C(=O)c2oc3cc(NC(C)=O)ccc3c2C)cc1OC [Compound 12]	4.2	0.28	–	68.5 ± 2.12	–	–
COc1ccc(Nc2nc(N)nc3nc[nH]c23)cc1OC [Compound 13]	7.7	0.33	–	72 ± 1.41	86 ± 0.41	–
COc1ccc(Nc2cc(-c3ccccc3)ncn2)cc1OC [Compound 14]	9.9	0.30	–	68.5 ± 0.71	–	–
COc1ccc(Nc2cc(C)nc(SC)n2)cc1OC [Compound 15]	19.6	0.32	–	57.5 ± 2.12	75.5 ± 0.71	–
COc1ccc(Nc2ncnc3c2cnn3C)cc1OC [Compound 16]	19.3	0.31	–	45.5 ± 2.12	82.5 ± 0.71	–
COc1ccc(Nc2ncnc3[nH]ncc23)cc1OC [Compound 17]	33.3	0.31	–	69	67	–
COc1ccc(Nc2ncnc3nc[nH]c23)cc1OC [Compound 18]	40.9	0.30	–	34 ± 2.83	67 ± 0.41	–
COc1ccc(Nc2cc(Cl)nc(N)n2)cc1OC [Compound 19]	56.2	0.30	–	65.5 ± 0.71	96.5 ± 0.71	–
COc1ccc(Nc2ccc3nnnn3n2)cc1OC [Compound 20]	–	0.28	–	71.5 ± 0.71	24.5 ± 2.12	78.6
COc1ccc(Nc2ccc3nnc(C(F)(F)F)n3n2)cc1OC [Compound 21]	–	0.23	–	59 ± 2.83	–	90.1
COc1ccc(Nc2nc(Nc3ccc(OC)c(OC)c3)c3[nH]cnc3n2)cc1OC [Compound 22]	< 0.025	–	–	71.5 ± 2.12	–	–
COc1ccc(NC(=O)c2nc[nH]n2)cc1OC [Compound 23]	> 1000	–	–	23 ± 4.24	51 ± 1.41	–
COc1ccc(Nc2cc(C)nc3ncnn23)cc1OC [Compound 24]	> 1000	–	–	52	34.5 ± 0.71	–
